Assay results from PubChem BioAssay (NCI).
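Briefly, cells in 96-well plates were exposed to five compound concentrations for 48 h, and endpoints were estimated by linear interpolation. At the GI50, growth is halved. TGI: concentration producing complete growth inhibition.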

Tests used:
Test in all cases: growth of human tumour cells (NCI), 48 h
786-0 renal = system: 786-0 renal
CAKI-1 renal = system: CAKI-1 renal
HOP-92 NSCLC = system: HOP-92 NSCLC
SNB-75 CNS = system: SNB-75 CNS
ACHN renal = system: ACHN renal
U251 CNS = system: U251 CNS
UO-31 renal = system: UO-31 renal
SK-MEL-5 melanoma = system: SK-MEL-5 melanoma
KM12 colon = system: KM12 colon
SF-268 CNS = system: SF-268 CNS
HOP-62 NSCLC = system: HOP-62 NSCLC
A498 renal = system: A498 renal
UACC-62 melanoma = system: UACC-62 melanoma
CCRF-CEM leukemia = system: CCRF-CEM leukemia
UACC-257 melanoma = system: UACC-257 melanoma
EKVX NSCLC = system: EKVX NSCLC
SR leukemia = system: SR leukemia
TK-10 renal = system: TK-10 renal
NCI-H226 lung = system: NCI-H226 lung
HCT-116 colon = system: HCT-116 colon
HS 578T breast = system: HS 578T breast
OVCAR-4 ovarian = system: OVCAR-4 ovarian
NCI/ADR-RES ovarian = system: NCI/ADR-RES ovarian
MALME-3M melanoma = system: MALME-3M melanoma
SNB-19 CNS = system: SNB-19 CNS
T-47D breast = system: T-47D breast
A549 NSCLC = system: A549 NSCLC
NCI-H522 lung = system: NCI-H522 lung
DU-145 prostate = system: DU-145 prostate
OVCAR-8 ovarian = system: OVCAR-8 ovarian
RXF 393 renal = system: RXF 393 renal
M14 melanoma = system: M14 melanoma
MDA-MB-231 breast = system: MDA-MB-231 breast
SF-539 CNS = system: SF-539 CNS
BT-549 breast = system: BT-549 breast
RPMI-8226 leukemia = system: RPMI-8226 leukemia
NCI-H23 lung = system: NCI-H23 lung
PC-3 prostate = system: PC-3 prostate
HL-60(TB) leukemia = system: HL-60(TB) leukemia
MOLT-4 leukemia = system: MOLT-4 leukemia
LOX IMVI melanoma = system: LOX IMVI melanoma
IGROV1 ovarian = system: IGROV1 ovarian
SK-OV-3 ovarian = system: SK-OV-3 ovarian
OVCAR-5 ovarian = system: OVCAR-5 ovarian
HT29 colon = system: HT29 colon
SW-620 colon = system: SW-620 colon
SK-MEL-2 melanoma = system: SK-MEL-2 melanoma
HCT-15 colon = system: HCT-15 colon
NCI-H460 lung = system: NCI-H460 lung
SF-295 CNS = system: SF-295 CNS
SK-MEL-28 melanoma = system: SK-MEL-28 melanoma
K-562 leukemia = system: K-562 leukemia
OVCAR-3 ovarian = system: OVCAR-3 ovarian
MDA-MB-435 = system: MDA-MB-435
COLO 205 colon = system: COLO 205 colon

C=C1C(=O)O[C@H]2[C@H]1CC/C(COC(=O)OCCCCCOC(=O)OC/C1=C/CC[C@@]3(C)O[C@H]3[C@H]3OC(=O)C(=C)[C@@H]3CC1)=C\CC[C@@]1(C)O[C@@H]21
GI50 (786-0 renal): 266 nM
TGI (786-0 renal): 930 nM
GI50 (CAKI-1 renal): 308 nM
TGI (CAKI-1 renal): 1020 nM
GI50 (HOP-92 NSCLC): 1260 nM
TGI (HOP-92 NSCLC): 2940 nM
GI50 (SNB-75 CNS): 1110 nM
TGI (SNB-75 CNS): 2500 nM
GI50 (ACHN renal): 176 nM
TGI (ACHN renal): 341 nM
GI50 (U251 CNS): 1310 nM
TGI (U251 CNS): 2820 nM
GI50 (UO-31 renal): 674 nM
TGI (UO-31 renal): 2050 nM
GI50 (SK-MEL-5 melanoma): 1530 nM
TGI (SK-MEL-5 melanoma): 3070 nM
GI50 (KM12 colon): 1510 nM
TGI (KM12 colon): 3310 nM
GI50 (SF-268 CNS): 1680 nM
TGI (SF-268 CNS): 3990 nM
GI50 (HOP-62 NSCLC): 1760 nM
TGI (HOP-62 NSCLC): 4020 nM
GI50 (A498 renal): 1500 nM
TGI (A498 renal): 3210 nM
GI50 (UACC-62 melanoma): 1280 nM
TGI (UACC-62 melanoma): 3050 nM
GI50 (CCRF-CEM leukemia): 321 nM
TGI (CCRF-CEM leukemia): 1140 nM
GI50 (UACC-257 melanoma): 661 nM
TGI (UACC-257 melanoma): 2310 nM
GI50 (EKVX NSCLC): 1120 nM
TGI (EKVX NSCLC): 3320 nM
GI50 (SR leukemia): 208 nM
TGI (SR leukemia): 744 nM
GI50 (TK-10 renal): 222 nM
TGI (TK-10 renal): 590 nM
GI50 (NCI-H226 lung): 1640 nM
TGI (NCI-H226 lung): 3420 nM
GI50 (HCT-116 colon): 174 nM
TGI (HCT-116 colon): 500 nM
GI50 (HS 578T breast): 2480 nM
TGI (HS 578T breast): 19800 nM
GI50 (OVCAR-4 ovarian): 683 nM
TGI (OVCAR-4 ovarian): 2150 nM
GI50 (NCI/ADR-RES ovarian): 2340 nM
TGI (NCI/ADR-RES ovarian): 9580 nM
GI50 (MALME-3M melanoma): 285 nM
TGI (MALME-3M melanoma): 878 nM
GI50 (SNB-19 CNS): 2100 nM
TGI (SNB-19 CNS): 7710 nM
GI50 (T-47D breast): 244 nM
TGI (T-47D breast): 750 nM
GI50 (A549 NSCLC): 2630 nM
TGI (A549 NSCLC): 7420 nM
GI50 (NCI-H522 lung): 156 nM
TGI (NCI-H522 lung): 372 nM
GI50 (DU-145 prostate): 1040 nM
TGI (DU-145 prostate): 2300 nM
GI50 (OVCAR-8 ovarian): 331 nM
TGI (OVCAR-8 ovarian): 998 nM
GI50 (RXF 393 renal): 155 nM
TGI (RXF 393 renal): 307 nM
GI50 (M14 melanoma): 406 nM
TGI (M14 melanoma): 1810 nM
GI50 (MDA-MB-231 breast): 256 nM
TGI (MDA-MB-231 breast): 803 nM
GI50 (SF-539 CNS): 610 nM
TGI (SF-539 CNS): 2040 nM
GI50 (BT-549 breast): 182 nM
TGI (BT-549 breast): 437 nM
GI50 (RPMI-8226 leukemia): 359 nM
TGI (RPMI-8226 leukemia): 1470 nM
GI50 (NCI-H23 lung): 674 nM
TGI (NCI-H23 lung): 2370 nM
GI50 (PC-3 prostate): 1830 nM
TGI (PC-3 prostate): 4540 nM
GI50 (HL-60(TB) leukemia): 281 nM
TGI (HL-60(TB) leukemia): 793 nM
GI50 (MOLT-4 leukemia): 229 nM
TGI (MOLT-4 leukemia): 727 nM
GI50 (LOX IMVI melanoma): 241 nM
TGI (LOX IMVI melanoma): 654 nM
GI50 (IGROV1 ovarian): 1670 nM
TGI (IGROV1 ovarian): 4370 nM
GI50 (SK-OV-3 ovarian): 2930 nM
TGI (SK-OV-3 ovarian): 9670 nM
GI50 (OVCAR-5 ovarian): 581 nM
TGI (OVCAR-5 ovarian): 2080 nM
GI50 (HT29 colon): 242 nM
TGI (HT29 colon): 726 nM
GI50 (SW-620 colon): 285 nM
TGI (SW-620 colon): 902 nM
GI50 (SK-MEL-2 melanoma): 1370 nM
TGI (SK-MEL-2 melanoma): 3310 nM
GI50 (HCT-15 colon): 252 nM
TGI (HCT-15 colon): 822 nM
GI50 (NCI-H460 lung): 1870 nM
TGI (NCI-H460 lung): 4640 nM
GI50 (SF-295 CNS): 2120 nM
TGI (SF-295 CNS): 5880 nM
GI50 (SK-MEL-28 melanoma): 252 nM
TGI (SK-MEL-28 melanoma): 842 nM
GI50 (K-562 leukemia): 267 nM
TGI (K-562 leukemia): 1080 nM
GI50 (OVCAR-3 ovarian): 273 nM
TGI (OVCAR-3 ovarian): 823 nM
GI50 (MDA-MB-435): 527 nM
TGI (MDA-MB-435): 2130 nM
GI50 (COLO 205 colon): 199 nM
TGI (COLO 205 colon): 438 nM
